The results in this text go back to US8618095B2 (Rigel Pharmaceuticals, Inc., priority 2010, dated 2013).

A word on the IC50: it is the concentration needed to halve the response being measured.

The subject of the experiment is Human mast cells (CHMC). Put plainly: LD Tryptase release assay in CHMC (mast cell activation induced by FcγR cross-linking). It counts as cell-based. The following applies: Homo sapiens, Mast cell, anti-IgG stimulation, activity of tryptase released upon degranulation. The protocol:
Compounds were assayed for inhibition of mast cell activation induced by FcγR cross-linking by measuring the activity of tryptase released upon degranulation as follows:
Human mast cells were cultured and differentiated from […] progenitor cell as described in U.S. Patent Publication No. 2005-234049, incorporated herein by reference. For example, 65 μL of various concentrations of the compound to be assayed were prepared in MT (137 mM NaCl, 2.7 mM KCl, 1.8 mM CaCl2, 1.0 mM MgCl2, 5.6 mM Glucose, 20 mM Hepes (pH 7.4), 0.1% Bovine Serum Albumin, (Sigma A4503)) containing 2% MeOH and 1% DMSO, or control buffer were added to duplicate 96-well V-bottom plates. Pelleted and re-suspended (in warm MT) CHMC cells (65 μL) were added to each 96-well plate, mixed and incubated for 1 hour at 37° C. 25 μl of 6× anti-IgG Rabbit anti-human IgG, Affinity purified (Bethyl Laboratories Cat No. A80-105A3) final concentration 1 μg/mL, was added to the test wells. MT (25 μL) was added to control wells. After a 60-minute incubation at 37° C., cells and cell debris were pelleted by centrifugation at 1000 rpm for 10 min and tryptase and leukotriene C4 levels were measured.
To measure tryptase levels, 25 μL of supernatant from each well was transferred to a fresh 96-well black bottom plate, to which 100 μL of fresh tryptase substrate solution [(Z-Ala-Lys-Arg-AMC2TFA; Enzyme Systems Products, #AMC-246)] 1:2000 in tryptase assay buffer [0.1 M Hepes (pH 7.5), 10% w/v Glycerol, 10 μM Heparin (Sigma H-4898) 0.01% NaN3] was added. After 30 minute incubation at room temperature, the optical density of the plates is measured at 355 nm/460 nm on a spectrophotometric plate reader. Table 1 provides the IC50 values.
Compounds of the disclosure were assayed for their ability to inhibit mast cell activation induced by FcγR cross-linking by measuring the activity of tryptase released upon degranulation. The IC50 values for the LD Tryptase assay are presented in Table 2, in which “0” is >100 μM; “A” is 1-100 μM; “B” is 0.5-1 μM; “C” is 0.1-0.5 μM; and “D” is less than 0.1 μM: […]
On to `O=C1COc2ccc(Nc3nc(Nc4ccc(N5CCOCC5)c(F)c4)ncc3F)nc2N1` [Compound 34, N4-(3,4-dihydro-3-oxo-2H-pyrido[3,2-b][1,4]oxazin-6-yl)-5-fluoro-N2-[3-fluoro-4-morpholinophenyl]-2,4-pyrimidinediamine], for which the IC50 is below 100 nM.

Regarding `CCN(CC)C1CCN(c2ccc(Nc3ncc(F)c(Nc4ccc5c(n4)NC(=O)C(C)(C)O5)n3)cn2)C1` (centres unmarked) [Compound 66, N4-(2,2-dimethyl-3,4-dihydro-3-oxo-2H-pyrido[3,2-b][1,4]oxazin-6-yl)-5-fluoro-N2-[6-(3-(diethylamino)pyrrolidin-1-yl)pyridin-3-yl]-2,4-pyrimidinediamine], the half-maximal inhibitory concentration (IC50) is 500 to 1000 nM.

Turning to `COc1cc(Nc2ncc(F)c(Nc3ccc4c(n3)NC(=O)C(C)(C)O4)n2)ccc1C1CCOCC1` [Compound 48, N4-(2,2-dimethyl-3,4-dihydro-3-oxo-2H-pyrido[3,2-b][1,4]oxazin-6-yl)-5-fluoro-N2-[-3-methoxy-4-tetrahydropyranophenyl]-2,4-pyrimidinediamine], the IC50 was 100 to 500 nM. Turning to `C[C@@H]1CN(c2ccc(Nc3ncc(F)c(Nc4ccc5c(n4)NC(=O)C(C)(C)O5)n3)cc2)CCO1` [Compound 118, N4-(2,2-dimethyl-3,4-dihydro-3-oxo-2H-pyrido[3,2-b][1,4]oxazin-6-yl)-5-fluoro-N2-[4-((2R)-2-methylmorpholino)phenyl]-2,4-pyrimidinediamine], the half-inhibitory concentration (IC50) was below 100 nM. The value for `C[C@@H]1CN(c2ccc(Nc3ncc(F)c(Nc4ccc5c(n4)NC(=O)CO5)n3)cc2)CCO1` [Compound 117, N4-(3,4-dihydro-3-oxo-2H-pyrido[3,2-b][1,4]oxazin-6-yl)-5-fluoro-N2-[4-((2R)-2-methylmorpholino)phenyl]-2,4-pyrimidinediamine] was below 100 nM; that for `CC1(C)Oc2ccc(Nc3nc(Nc4ccc(N5C[C@@H]6C[C@H]5CO6)nc4)ncc3F)nc2NC1=O` [Compound 92, N4-(2,2-dimethyl-3,4-dihydro-3-oxo-2H-pyrido[3,2-b][1,4]oxazin-6-yl)-5-fluoro-N2-[6-((1S,4S)-5-oxa-2-aza-bicyclo[2.2.1]heptan-2-yl)pyridin-3-yl]-2,4-pyrimidinediamine] was below 100 nM; that for `C=C1COCCN1c1ccc(Nc2ncc(F)c(Nc3ccc4c(n3)NC(=O)C(C)(C)O4)n2)cn1` [Compound 58, N4-(2,2-dimethyl-3,4-dihydro-3-oxo-2H-pyrido[3,2-b][1,4]oxazin-6-yl)-5-fluoro-N2-[6-(3-methylenemorpholino)pyridin-3-yl]-2,4-pyrimidinediamine] was 1000 to 100000 nM. `CC1(C)Oc2ccc(Nc3nc(Nc4ccc(N5CCN6CCC5CC6)nc4)ncc3F)nc2NC1=O` [Compound 62, N4-(2,2-dimethyl-3,4-dihydro-3-oxo-2H-pyrido[3,2-b][1,4]oxazin-6-yl)-5-fluoro-N2-[6-(1,4-diazabicyclo[3.2.2]nonan-4-yl)pyridin-3-yl]-2,4-pyrimidinediamine]: the IC50 is 500 to 1000 nM. The value for `CCO[C@H]1CCN(c2ccc(Nc3ncc(F)c(Nc4ccc5c(n4)NC(=O)C(C)(C)O5)n3)cn2)C1` [Compound 57, N4-(2,2-dimethyl-3,4-dihydro-3-oxo-2H-pyrido[3,2-b][1,4]oxazin-6-yl)-5-fluoro-N2-1-2,4-pyrimidinediamine] was 100 to 500 nM; that for `CC1(C)Oc2ccc(Nc3nc(Nc4ccc(N5CCC(O)CC5)cc4)ncc3F)nc2NC1=O` [Compound 77, N4-(2,2-dimethyl-3,4-dihydro-3-oxo-2H-pyrido[3,2-b][1,4]oxazin-6-yl)-5-fluoro-N2-[4-(4-hydroxypiperidin-1-yl)phenyl]-2,4-pyrimidinediamine] was below 100 nM; that for `CCOCC1CN(c2ccc(Nc3ncc(F)c(Nc4ccc5c(n4)NC(=O)CO5)n3)cc2)CCO1` (stereo in doubt) [Compound 41, N4-(3,4-dihydro-3-oxo-2H-pyrido[3,2-b][1,4]oxazin-6-yl)-5-fluoro-N2-[4-(((2S)-2-ethoxymethyl)morpholino)phenyl]-2,4-pyrimidinediamine] was 100 to 500 nM.
